# From paper PMC11448502, “Cryo-EM structures of the human P2X1 receptor reveal subtype-specific architecture and antagonism by supramolecular ligand-binding” (Nature Communications, 2024)
# Where a chain is given by its changes, count along the chain named. Several values for one entry are separate records, joined by “and”; a condition that tells them apart may be missing. Equal entries are not always repeated. Entries after “also recorded” stand apart in the source; their conditions may differ.
# Key:
# hP2X1 D170A = target: T1, hP2X1 D170A (Homo sapiens, UniProt P51575, D170A); assay: ATP dose response (EC50), TEVC in oocytes; format: cell-based; settings: for Normalized Current: hP2X1 D170A
# T1 construct: hP2X1 mRNA that was made from linearized full-length wild-type or mutant pcDNA 3.1x; expressed in transfected cells; host or cells: Xenopus laevis oocytes (mRNA injection)
# T1 sequence (P51575 1-399 D170A): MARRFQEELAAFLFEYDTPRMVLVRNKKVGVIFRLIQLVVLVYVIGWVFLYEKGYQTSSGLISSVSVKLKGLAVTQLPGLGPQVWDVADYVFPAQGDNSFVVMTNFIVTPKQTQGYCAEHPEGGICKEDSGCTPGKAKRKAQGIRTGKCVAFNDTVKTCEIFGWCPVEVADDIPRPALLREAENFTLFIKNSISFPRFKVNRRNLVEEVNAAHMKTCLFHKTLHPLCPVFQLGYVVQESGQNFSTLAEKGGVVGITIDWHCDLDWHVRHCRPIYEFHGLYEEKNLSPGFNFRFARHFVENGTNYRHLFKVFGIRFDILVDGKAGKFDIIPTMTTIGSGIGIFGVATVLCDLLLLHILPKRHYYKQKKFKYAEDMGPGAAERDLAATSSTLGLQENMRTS
# Experimental: (§1) Oocytes were purchased defolliculated from Ecocyte Bioscience in Barth’s Solution (88 mM NaCl, 1 mM KCl, 0.82 mM MgSO4, 0.33 mM Ca(NO3)2, 0.41 mM CaCl2, 2.4 mM NaHCO3, 5 mM Tris-HCl) supplemented with penicillin (100 U/mL) and streptomycin (100 µg/mL). Xenopus laevis oocytes were then injected with 50 nL of 100 ng/μL hP2X1 mRNA that was made from linearized full-length wild-type or mutant pcDNA 3.1x according to the protocol provided in the mMessage mMachine kit (Invitrogen). Injected oocytes were allowed to express for ~20 hours at 18 °C before recording was performed.
# (§2) Data acquisition was performed using the Oocyte Clamp OC-725C amplifier and pClamp 8.2 software. Buffers were applied using a gravity fed RSC-200 Rapid Solution Changer that flows at ~5 mL/min. All experiments use Sutter filamented glass 10 cm in length with an inner diameter of 0.69 mm and an outer diameter of 1.2 mm to impale oocytes and clamp the holding voltage at −60 mV. Experiments were recorded in buffer containing 10 mM HEPES (pH 7.4), 140 mM NaCl, 5 mM KCl, 2 mM CaCl2, 2 mM MgCl2, and 10 mM glucose.
# (§3) Excitatory responses to a dilution series of ATP between 6.4 nM and 10 mM were examined across the different mutants. Each evoked response was normalized to an initial ATP-induced current evoked by the following concentrations: 500 µM ATP for R292A, 2 mM ATP for K309A, and 100 µM ATP for the remaining mutants and wild-type receptor. The data was fit in Prism 9 using the nonlinear regression named “EC50, x is concentration” to afford EC50 values. This value was then averaged amongst each singular condition and reported as an average plus or minus the standard deviation.
# hP2X1 R139A = target: T2, hP2X1 R139A (Homo sapiens, UniProt P51575, R139A); assay: ATP dose response (EC50), TEVC in oocytes; format: cell-based
# T2 construct: hP2X1 mRNA that was made from linearized full-length wild-type or mutant pcDNA 3.1x; expressed in transfected cells; host or cells: Xenopus laevis oocytes (mRNA injection)
# T2 sequence (P51575 1-399 R139A): T1 sequence (P51575 1-399 D170A) with R139A, A170D
# Experimental: as §1, §2, §3
# hP2X1 WT = target: T3, hP2X1 WT (Homo sapiens, UniProt P51575); assay: ATP dose response (EC50), TEVC in oocytes; format: cell-based
# T3 construct: hP2X1 mRNA that was made from linearized full-length wild-type or mutant pcDNA 3.1x; expressed in transfected cells; host or cells: Xenopus laevis oocytes (mRNA injection)
# T3 sequence (P51575 1-399): T1 sequence (P51575 1-399 D170A) with A170D
# Experimental: as §1, §2, §3
# hP2X1 K309A = target: T4, hP2X1 K309A (Homo sapiens, UniProt P51575, K309A); assay: ATP dose response (EC50), TEVC in oocytes; format: cell-based
# T4 construct: hP2X1 mRNA that was made from linearized full-length wild-type or mutant pcDNA 3.1x; expressed in transfected cells; host or cells: Xenopus laevis oocytes (mRNA injection)
# T4 sequence (P51575 1-399 K309A): T1 sequence (P51575 1-399 D170A) with A170D, K309A
# Experimental: as §1, §2, §3
# thrombosis = settings: in vivo; cited from earlier work
structure (smiles),measurement,setting,value
Nc1ncnc2c1ncn2[C@@H]1O[C@H](COP(=O)(O)OP(=O)(O)OP(=O)(O)O)[C@@H](O)[C@H]1O [ATP],"apparent affinity (EC50) of ATP, effect of mutation","hP2X1 D170A; hP2X1 D170A vs wild-type, TEVC",do not appear to significantly change; also recorded: no major effect; also recorded: does not significantly impact
same,Normalized Current,hP2X1 D170A; [ATP] 1.000E-04 M,0.9915 and 0.8795 and 0.8416
same,Normalized Current,hP2X1 D170A; [ATP] 2.000E-05 M,0.8809 and 0.7486 and 0.74
same,Normalized Current,hP2X1 D170A; [ATP] 3.200E-08 M,0.000000
same,Normalized Current,hP2X1 D170A; [ATP] 4.000E-06 M,0.723 and 0.5398 and 0.4488
same,Normalized Current,hP2X1 D170A; [ATP] 5.000E-04 M,1.029 and 1.009 and 0.9611
same,EC50 of ATP,hP2X1 R139A; TEVC,no effect; also recorded: without affecting
same,Normalized Current,hP2X1 R139A; [ATP] 1.000E-04 M,0.9464 and 0.9017 and 0.9178
same,Normalized Current,hP2X1 R139A; [ATP] 2.000E-05 M,0.8825 and 0.6805 and 0.736
same,Normalized Current,hP2X1 R139A; [ATP] 4.000E-06 M,0.6603 and 0.5057 and 0.6077
same,Normalized Current,hP2X1 R139A; [ATP] 5.000E-04 M,1.062 and 0.93 and 1.008
same,EC50,"hP2X1 WT; TEVC, Xenopus laevis oocytes, mean ± SD, triplicate, read-out: apparent affinity (EC50) of ATP",1.7 ± 0.3 µM
same,Normalized Current,hP2X1 WT; [ATP] 1.000E-04 M,1.041 and 0.9705 and 0.9151
same,Normalized Current,hP2X1 WT; [ATP] 1.600E-07 M,0.08801 and 0.07128 and 0.05984
same,Normalized Current,hP2X1 WT; [ATP] 4.000E-06 M,0.7387 and 0.5911 and 0.5682
same,Normalized Current,hP2X1 WT; [ATP] 5.000E-04 M,1.055 and 1.025 and 0.9207
same,Normalized Current,hP2X1 WT; [ATP] 8.000E-07 M,0.4523 and 0.3946 and 0.3316
same,Hill slope of activation by ATP,hP2X1 WT; mean ± SD of three EC50 traces,0.9 ± 0.2
same,EC50 of ATP,hP2X1 K309A; TEVC,impacted
same,Normalized Current,hP2X1 K309A; [ATP] 1.000E-02 M,1.006 and 0.9573 and 1.036
same,Normalized Current,hP2X1 K309A; [ATP] 2.000E-03 M,0.8423 and 0.8039 and 0.8072
same,Normalized Current,hP2X1 K309A; [ATP] 3.200E-06 M,0.000000
same,Normalized Current,hP2X1 K309A; [ATP] 4.000E-04 M,0.3324 and 0.3289 and 0.2846
"O=C(Nc1cc(C(=O)Nc2ccc(S(=O)(=O)O)cc2S(=O)(=O)O)cc(C(=O)Nc2ccc(S(=O)(=O)O)cc2S(=O)(=O)O)c1)Nc1cc(C(=O)Nc2ccc(S(=O)(=O)O)cc2S(=O)(=O)O)cc(C(=O)Nc2ccc(S(=O)(=O)O)cc2S(=O)(=O)O)c1 [NF449, 4,4’,4”,4’’’-(carbonylbis(imino-5,1,3-benzenetriylbis(carbonylimino)))tetrakis-benzene-1,3-disulfonic acid]",effect on thrombosis,thrombosis,inhibitory effect
